Results: US8637484B2, “Modulation of growth hormone receptor expression and insulin-like growth factor expression” (Antisense Therapeutic Limited, priority 2003, dated 2014)
In the oligonucleotide strings, read from the 5' end, every base follows the letter of its sugar. An asterisk marks phosphorothioate; unmarked linkages are phosphodiester. Other units and linkages are bracketed, terminal groups are in braces. A string of capitals states the bases alone. e = 2'-O-(2-methoxyethyl) (MOE); [5mC] = 5-methylcytosine; d = 2'-deoxy (DNA)

Tests used:
[1] = test system: mouse growth hormone receptor mRNA; experiment: Inhibition of mouse growth hormone receptor mRNA levels in b.END cells, quantitative real-time PCR; assay type: cell-based; parameters: % INHIB: concentration or dose not given beside the values; details: for % INHIB: mouse growth hormone receptor mRNA, b.END cells, averages from three experiments; for IC50: dose-response studies
Method: The mouse brain endothelial cell line b.END was obtained from Dr. Werner Risau at the Max Plank Instititute (Bad Nauheim, Germany). b.END cells were routinely cultured in DMEM, high glucose (Gibco/Life Technologies, Gaithersburg, Md.) supplemented with 10% fetal calf serum (Gibco/Life Technologies, Gaithersburg, Md.). Cells were routinely passaged by trypsinization and dilution when they reached 90% confluence. Cells were seeded into 96-well plates (Falcon-Primaria #3872) at a density of 3000 cells/well for use in RT-PCR analysis.
When cells reached 65-75% confluency, they were treated with oligonucleotide. For cells grown in 96-well plates, wells were washed once with 100 μL OPTI-MEM™-1 reduced-serum medium (Invitrogen Corporation, Carlsbad, Calif.) and then treated with 130 μL of OPTI-MEM™-1 containing 3.75 μg/mL LIPOFECTIN™ (Invitrogen Corporation, Carlsbad, Calif.) and the desired concentration of oligonucleotide. Cells are treated and data are obtained in triplicate. After 4-7 hours of treatment at 37° C., the medium was replaced with fresh medium. Cells were harvested 16-24 hours after oligonucleotide treatment.
Total RNA was isolated using an RNEASY 96™ kit and buffers purchased from Qiagen Inc. (Valencia, Calif.) following the manufacturer's recommended procedures. Briefly, for cells grown on 96-well plates, growth medium was removed from the cells and each well was washed with 200 μL cold PBS. 150 μL Buffer RLT was added to each well and the plate vigorously agitated for 20 seconds. 150 μL of 70% ethanol was then added to each well and the contents mixed by pipetting three times up and down. The samples were then transferred to the RNEASY 96™ well plate attached to a QIAVAC™ manifold fitted with a waste collection tray and attached to a vacuum source. Vacuum was applied for 1 minute. 500 μL of Buffer RW1 was added to each well of the RNEASY 96™ plate and incubated for 15 minutes and the vacuum was again applied for 1 minute. An additional 500 μL of Buffer RW1 was added to each well of the RNEASY 96™ plate and the vacuum was applied for 2 minutes. 1 mL of Buffer RPE was then added to each well of the RNEASY 96™ plate and the vacuum applied for a period of 90 seconds. The Buffer RPE wash was then repeated and the vacuum was applied for an additional 3 minutes. The plate was then removed from the QIAVAC™ manifold and blotted dry on paper towels. The plate was then re-attached to the QIAVAC™ manifold fitted with a collection tube rack containing 1.2 mL collection tubes. RNA was then eluted by pipetting 140 μL of RNAse free water into each well, incubating 1 minute, and then applying the vacuum for 3 minutes.
Quantitation of growth hormone receptor mRNA levels was accomplished by real-time quantitative PCR using the ABI PRISM™ 7600, 7700, or 7900 Sequence Detection System (PE-Applied Biosystems, Foster City, Calif.) according to manufacturer's instructions. This is a closed-tube, non-gel-based, fluorescence detection system which allows high-throughput quantitation of polymerase chain reaction (PCR) products in real-time. As opposed to standard PCR in which amplification products are quantitated after the PCR is completed, products in real-time quantitative PCR are quantitated as they accumulate. This is accomplished by including in the PCR reaction an oligonucleotide probe that anneals specifically between the forward and reverse PCR primers, and contains two fluorescent dyes. A reporter dye (e.g., FAM or JOE, obtained from either PE-Applied Biosystems, Foster City, Calif., Operon Technologies Inc., Alameda, Calif. or Integrated DNA Technologies Inc., Coralville, Iowa) is attached to the 5′ end of the probe and a quencher dye (e.g., TAMRA, obtained from either PE-Applied Biosystems, Foster City, Calif., Operon Technologies Inc., Alameda, Calif. or Integrated DNA Technologies Inc., Coralville, Iowa) is attached to the 3′ end of the probe. […]

serum IGF-I [2] = experiment: Serum IGF-I, additional 1 week study in mice; assay type: in vivo, mouse; details: 50 mg/kg once every 2 days, day 7
Method: (§1) Male Balb/C(a) mice were prepared and grouped for analysis as in Example 18 above.
Animals (n=10/group) were designated to the following treatment groups:
(§2) Animals were treated and serum IGF-I levels were measured as in Example 18 above. Briefly, for the one-week study, mice were given a subcutaneous dose of saline every second day, and mismatch control or antisense with administration on days 0, 2, 4, 6. On day 7, the animals were anaesthetized with pentobarbital and non-fasting blood samples collected exactly 5 minutes later from the retrobulbar plexus through heparinized capillary tubes under light ether anesthesia. Serum IGF-I measurement was done by radioimmunoassay at day 7.

[3] = test system: growth hormone receptor mRNA; experiment: Growth hormone receptor mRNA levels in liver, additional 1 week study; assay type: in vivo, mouse; details: 50 mg/kg, one-week study
Method: as §1, §2
Growth hormone receptor mRNA levels in liver tissue samples from treated and untreated mice in this one-week study were assayed. The growth hormone receptor antisense inhibitor ISIS 227446 reduced growth hormone receptor mRNA levels in liver after the one-week study by 72% at the 50 mg/kg dose, relative to saline control (p<0.0001). The 30 mg/kg dose of ISIS 227446 yielded a 50% decrease in growth hormone receptor mRNA (p<0.0001). The unrelated control oligonucleotide ISIS 260120, at 50 mg/kg, reduced growth hormone receptor mRNA levels by approximately 15% (p>0.05).

serum IGF-I [4] = experiment: Serum IGF-I, two-week mouse study; assay type: in vivo; details: 30 mg/kg, 2 weeks
Method: A two-week study was done in similar fashion to the one-week study in Example 18, this time using ISIS 227446 at doses of 3, 5, 10, 20 and 30 mg/kg. The mismatch control was given at the same doses. Mice were treated with antisense compound or saline every other day for 14 days.
P-values were determined by t-test.

Row | Substance | % INHIB [1] [%] | also measured
1 | 227496 (antisense eG*e[5mC]*eA*eT*eT*d[5mC]*dA*dA*dT*dT*dT*d[5mC]*d[5mC]*dT*dG*eA*eA*e[5mC]*eT*eG) [compound 227496] | 51 | –
2 | 227497 (antisense eT*eA*eA*eA*eT*dG*dT*dT*dT*dT*dG*d[5mC]*dA*dT*dA*eT*e[5mC]*e[5mC]*eA*eA) [compound 227497] | 77 | –
3 | 227498 (antisense eT*eT*eG*eT*eA*dA*dA*dA*dA*dT*d[5mC]*dT*dA*dA*d[5mC]*eT*eT*eG*eT*eT) [compound 227498] | 49 | –
4 | 227503 (antisense eT*eA*e[5mC]*e[5mC]*eT*dG*dA*dG*dA*d[5mC]*d[5mC]*d[5mC]*d[5mC]*dA*dG*eT*eT*e[5mC]*eA*eT) [compound 227503] | 24 | –
5 | 227504 (antisense eT*eA*e[5mC]*e[5mC]*eT*dG*dA*dG*dA*d[5mC]*d[5mC]*d[5mC]*d[5mC]*dG*d[5mC]*eG*e[5mC]*eA*eG*e[5mC]) [compound 227504] | 34 | –
6 | 227505 (antisense eT*eA*e[5mC]*e[5mC]*eT*dG*dA*dG*dA*d[5mC]*d[5mC]*d[5mC]*dA*d[5mC]*dA*eA*eG*e[5mC]*eG*eG) [compound 227505] | 39 | –
7 | 227506 (antisense e[5mC]*e[5mC]*eT*e[5mC]*e[5mC]*dA*dG*dT*dA*d[5mC]*d[5mC]*dT*d[5mC]*dG*dG*eA*eG*eT*eT*eT) [compound 227506] | 69 | –
8 | 227507 (antisense eG*eT*e[5mC]*e[5mC]*eT*dT*dG*d[5mC]*dT*d[5mC]*d[5mC]*dA*dG*dG*dT*eT*eA*eG*e[5mC]*eA) [compound 227507] | 89 | IC50 [1]: ~12.5 nM
9 | 227508 (antisense eT*eT*e[5mC]*e[5mC]*eA*d[5mC]*dT*d[5mC]*dA*d[5mC]*d[5mC]*d[5mC]*d[5mC]*dA*dG*eT*eT*e[5mC]*eA*eT) [compound 227508] | 51 | –
10 | 227509 (antisense eG*e[5mC]*eA*eG*eT*dT*d[5mC]*dT*dA*dT*d[5mC]*dA*dG*dA*dA*e[5mC]*eT*eT*eT*eG) [compound 227509] | 82 | IC50 [1]: ~12.5 nM
11 | 227510 (antisense e[5mC]*eT*e[5mC]*e[5mC]*eA*dG*dA*d[5mC]*dG*dT*dG*dA*d[5mC]*d[5mC]*d[5mC]*eG*eA*e[5mC]*eT*e[5mC]) [compound 227510] | 64 | –
12 | 227511 (antisense e[5mC]*e[5mC]*eA*e[5mC]*eG*d[5mC]*dA*d[5mC]*d[5mC]*d[5mC]*dA*d[5mC]*dA*dA*dG*e[5mC]*eG*eG*eA*eT) [compound 227511] | 71 | –
13 | 227512 (antisense eT*eA*eA*e[5mC]*e[5mC]*dT*dA*dT*dG*dG*dT*dG*dA*d[5mC]*dT*eA*eT*eG*eT*e[5mC]) [compound 227512] | 36 | –
14 | 227513 (antisense eT*eA*e[5mC]*e[5mC]*eT*dG*dA*dG*dA*d[5mC]*d[5mC]*dT*dG*d[5mC]*dA*eA*eG*eA*e[5mC]*eA) [compound 227513] | 40 | –
15 | 227514 (antisense eA*eT*eG*e[5mC]*eT*d[5mC]*dA*d[5mC]*dG*dT*d[5mC]*dA*dG*d[5mC]*dT*eA*eT*eT*eG*eG) [compound 227514] | 43 | –
16 | 227515 (antisense eA*eA*eA*eT*eT*d[5mC]*dT*dT*dA*d[5mC]*dT*dT*dG*dT*d[5mC]*e[5mC]*e[5mC]*e[5mC]*eA*eG) [compound 227515] | 37 | –
17 | 227516 (antisense eT*eT*eG*eG*e[5mC]*dT*dT*dT*d[5mC]*d[5mC]*d[5mC]*dT*dG*dG*dA*eG*eG*eT*eT*e[5mC]) [compound 227516] | 57 | –
18 | 227517 (antisense e[5mC]*eT*eT*e[5mC]*eA*d[5mC]*dT*dA*dA*d[5mC]*d[5mC]*dT*dT*dG*d[5mC]*eA*eG*e[5mC]*eT*eT) [compound 227517] | 63 | –
19 | 227518 (antisense e[5mC]*eA*e[5mC]*eG*eG*d[5mC]*dT*dT*dA*d[5mC]*d[5mC]*dT*dA*dT*dT*eT*e[5mC]*eG*eT*e[5mC]) [compound 227518] | 6 | –
20 | 227519 (antisense eT*e[5mC]*eA*e[5mC]*eA*d[5mC]*d[5mC]*dT*dA*d[5mC]*d[5mC]*dT*dT*dT*dG*e[5mC]*eT*eG*e[5mC]*eT) [compound 227519] | 44 | –
21 | 227520 (antisense e[5mC]*eA*eT*e[5mC]*eT*dT*dA*dA*dT*d[5mC]*d[5mC]*dT*dT*dG*dG*eA*eA*eA*e[5mC]*eA) [compound 227520] | 42 | –
22 | TTACCGTATGGTTCCTCACT (chemistry not given here) [ISIS 260120, unrelated negative control oligonucleotide, reference compound] | – | reduction of serum IGF-I relative to saline control (serum IGF-I [2]): 17%; reduction of growth hormone receptor mRNA levels in liver relative to saline control [3]: approximately 15%; effect on serum IGF-I levels seen with the mismatch oligonucleotide (serum IGF-I [4]): not observed
